The text below walks through data of PubChem BioAssay (NCI).

Where “and” joins values, the source holds several entries; their conditions need not be identical. Equal entries are not always repeated.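 Cells were grown in 96-well plates and exposed to each compound for 48 hours at five concentrations; endpoints were interpolated linearly between bracketing concentrations, or set to the highest concentration if not reached. GI50 = concentration required for 50% inhibition of growth. TGI: total growth inhibition.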

Test systems include SK-MEL-28 melanoma; OVCAR-8 ovarian; HT29 colon; NCI-H460 lung; OVCAR-3 ovarian; T-47D breast; DU-145 prostate; MDA-MB-231 breast.
What all share (assay): growth of human tumour cells (NCI), 48 h

In the case of `Cc1ccccc1NC(=O)C(=O)C(C#N)c1ccc(Cl)cc1` (stereo unspecified), the TGI in the test on SK-MEL-28 melanoma was more than 100 µM; in the test with OVCAR-8 ovarian it was more than 100 µM; in the test with HT29 colon, more than 100 µM; in the test with NCI-H460 lung it was 56 µM; with OVCAR-3 ovarian, more than 100 µM.
In the case of `CC(C)(C)OC1=C(OC(C)(C)C)C(O)(c2ccccc2)C1=O` (stereo unspecified), the TGI in the test with SK-MEL-28 melanoma, in the test with OVCAR-8 ovarian, in the test with HT29 colon, in the test with NCI-H460 lung and in the test on OVCAR-3 ovarian was more than 100 µM throughout.
In the case of `CC[C@]1(O)CC(OC2CC(N(C)C)C(O)C(C)O2)c2c(cc3c(c2O)C(=O)c2c(O)cccc2C3=O)[C@@H]1C(=O)OC` (stereo partly specified), the TGI with SK-MEL-28 melanoma amounted to 3.04 µM; with OVCAR-8 ovarian it was 5.11 µM; in the test with HT29 colon it was 5.09 µM; with T-47D breast it was 5.54 µM; in the test with DU-145 prostate, 12.9 µM; in the test with NCI-H460 lung, 3.46 µM. Also, the TGI with MDA-MB-231 breast worked out at 4.2 µM; in the test on OVCAR-3 ovarian, 5.67 µM.
As to `C[C@@H]1COCCN1c1cc(C2([S@](C)(=N)=O)CC2)nc(-c2ccnc3[nH]ccc23)n1`, the GI50 with SK-MEL-28 melanoma was 10.9 µM and > 10 µM; with OVCAR-8 ovarian, 6.65 µM and > 10 µM; with HT29 colon it was 4.27 µM and 4.99 µM; in the test on T-47D breast, 3.96 µM and 7.78 µM; in the test with DU-145 prostate, 3.1 µM and 3.64 µM; in the test on NCI-H460 lung it was 1.04 µM and 2.1 µM. The GI50 is 7.28 µM and 7.53 µM with MDA-MB-231 breast; 4.16 µM and 5.15 µM in the test on OVCAR-3 ovarian. Further, the TGI is more than 79.7 µM with SK-MEL-28 melanoma; more than 84.5 µM in the test on OVCAR-8 ovarian; more than 100 µM in the test on HT29 colon; 35.8 µM and > 10 µM in the test with T-47D breast; more than 100 µM in the test on DU-145 prostate; more than 100 µM with NCI-H460 lung. Besides, the TGI in the test on MDA-MB-231 breast is more than 100 µM; in the test with OVCAR-3 ovarian, more than 80.6 µM.
As for `COc1ccc(C2CC(=O)c3c(O)cc(O)cc3O2)cc1O` (stereo unspecified), the TGI with SK-MEL-28 melanoma, in the test on OVCAR-8 ovarian, with HT29 colon, in the test on NCI-H460 lung and in the test with OVCAR-3 ovarian was more than 100 µM throughout.
As to `O=C(Nc1ccc(Cl)cc1Cl)C1C(=O)N(c2ccc(Cl)cc2Cl)C(=O)/C1=N\Nc1ccc([N+](=O)[O-])cc1[N+](=O)[O-]` (stereo unspecified), the TGI in the test on SK-MEL-28 melanoma, in the test with OVCAR-8 ovarian, with HT29 colon, in the test on NCI-H460 lung and in the test on OVCAR-3 ovarian was more than 100 µM each time.
Turning to `Cc1cccc(NC(=O)CCc2ccc(N3C(N)=NC(N)=NC3(C)C)cc2)c1`, the GI50 in the test with SK-MEL-28 melanoma is 11.8 µM; with OVCAR-8 ovarian, 13.6 µM; in the test on HT29 colon, 0.364 µM; with T-47D breast, 38.6 µM; in the test with DU-145 prostate it was 0.941 µM; in the test with NCI-H460 lung, 0.454 µM. Also, the results for the GI50 with MDA-MB-231 breast and in the test on OVCAR-3 ovarian were more than 65.2 µM and 6.76 µM, respectively. Moreover, the TGI in the test on SK-MEL-28 melanoma, with OVCAR-8 ovarian, with HT29 colon, in the test on T-47D breast, in the test on DU-145 prostate and with NCI-H460 lung was more than 100 µM in each case. Besides, the TGI in the test on MDA-MB-231 breast and in the test with OVCAR-3 ovarian was more than 100 µM in each case.
`N=C(N)c1ccc(OCc2cccc(COc3ccc(C(=N)N)cc3)c2)cc1`: the GI50 in the test on SK-MEL-28 melanoma is 5.15 µM; in the test with OVCAR-8 ovarian, 11.3 µM; in the test on HT29 colon it was 7.64 µM; in the test on T-47D breast, 26.9 µM; with DU-145 prostate, 6.12 µM; in the test on NCI-H460 lung it was 4.27 µM. For the same compound, the GI50 in the test with MDA-MB-231 breast is 4.09 µM. Moreover, the TGI with SK-MEL-28 melanoma was 29.1 µM; with OVCAR-8 ovarian, 38.4 µM; with HT29 colon, more than 100 µM; in the test on T-47D breast it was more than 100 µM; in the test on DU-145 prostate, 20.3 µM; in the test on NCI-H460 lung, 20 µM. Besides, in the test on MDA-MB-231 breast, the TGI was 15.9 µM.
`CC(NS(=O)(=O)c1ccc([N+](=O)[O-])cc1)C(=O)O` (stereo unspecified): the TGI in the test with SK-MEL-28 melanoma, in the test on OVCAR-8 ovarian, in the test with HT29 colon, in the test with NCI-H460 lung and in the test on OVCAR-3 ovarian was more than 100 µM each time.
For the compound `COc1cc(C2c3[nH]c4ccccc4c3C[C@H]3COC(=O)N23)cc(OC)c1OC` (stereo partly specified), the GI50 with OVCAR-8 ovarian, in the test on HT29 colon, in the test with NCI-H460 lung and in the test with OVCAR-3 ovarian was less than 0.01 µM in each case. Moreover, the TGI was 1.71 µM and 0.389 µM in the test with OVCAR-8 ovarian; more than 100 µM in the test with HT29 colon; 6.25 µM in the test with DU-145 prostate.
Regarding `CC1CC(C2=CC=CCS2)=Nc2ccccc2S1` (stereo unspecified), the TGI with SK-MEL-28 melanoma, with OVCAR-8 ovarian, in the test with NCI-H460 lung and in the test with OVCAR-3 ovarian was more than 100 µM each time.
In the case of `NC(=O)NNCc1ccccc1`, the TGI with OVCAR-8 ovarian, with HT29 colon, with T-47D breast, in the test on DU-145 prostate, in the test with NCI-H460 lung and with MDA-MB-231 breast was more than 100 µM throughout. Also, the TGI in the test on OVCAR-3 ovarian is more than 100 µM.
As to `CN(C)c1ccc2c(=O)c3ccccc3oc2n1`, the TGI with SK-MEL-28 melanoma, with OVCAR-8 ovarian, in the test with NCI-H460 lung and with OVCAR-3 ovarian was more than 100 µM in each case.
